The values below come from patent US20100256385A1, “PROSTAGLANDIN E RECEPTOR ANTAGONISTS” (ALLERGAN, INC., priority 2009, published 2010).

By melting point is commonly meant the temperature of the solid-liquid transition.

One series relates to human osteoclasts. Nature of the series: Calcium Response in human osteoclasts. The following applies: for Calcium Response: agonist alone (FIG. 1, FIG. 2). In kind it is cell-based.

SMILES strings stand for the structures.

As for `O=C(CCc1ccc(F)cc1C[C@@H]1[C@H](c2nc(C(=O)NCCCCC3CCCCC3)co2)[C@H]2CC[C@H]1O2)NC(CO)CO` [Example 1, N-(1,3-Dihydroxyprop-2-yl)-3-(2-{(1R,2R,3S,4R)-3-[4-(4-cyclohexyl-butylcarbamoyl)-oxazol-2-yl]-7-oxa-bicyclo[2.2.1]hept-2-ylmethyl}-4-fluoro-phenyl)-propionamide], the melting point was in the range of 165 to 166 °C. The “Block of the Calcium Response initiated by PGE2” value in the series with human osteoclasts (response initiated by PGE2 (FIG. 3)) is “blocked”. With `CCCCC[C@H](O)/C=C/[C@H]1[C@H](O)CC(=O)[C@@H]1C/C=C\CCCC(=O)OCC(O)CO` (stereo partly shown) [PG-2 Glycerol Ester], the “Calcium Response” value with human osteoclasts is recorded as “induces a Calcium Response”.

With `CCCCC[C@H](O)/C=C/[C@H]1[C@H](O)CC(=O)[C@@H]1C/C=C\CCCC(=O)O` [PG-2], the “Calcium Response” value in the series on human osteoclasts is given as “does not cause a Calcium Response”.
